From publication PMC5915743, “Screening of a Novel Fragment Library with Functional Complexity against Mycobacterium tuberculosis InhA” (Chemmedchem, 2018)

Assays:
[1] = biological target: T1, Mycobacterium tuberculosis InhA (Mycobacterium tuberculosis, UniProt P9WGR1); assay: STD 1H NMR; assay type: binding; details: NADH-bound InhA; co-crystallised with ligands
[2] = biological target: T1, Mycobacterium tuberculosis InhA; assay: InhA biochemical inhibition assay; details: for IC50: read-out: InhA pIC50 ^[a][e] (% 500 μM) (converted); for InhA pIC50 ^[a][e] (% 500 μM): tested up to 1 mM
Text: InhA biochemical inhibition assay on Mycobacterium tuberculosis InhA

[3] = biological target: T1, Mycobacterium tuberculosis InhA; assay: surface plasmon resonance, equilibrium; assay type: binding; details: read-out: SPR pK d ^[f] (converted)
Text: surface plasmon resonance, equilibrium on Mycobacterium tuberculosis InhA

[4] = published lead, not marked as earlier data in table

T1 sequence (P9WGR1 whole entry, looked up): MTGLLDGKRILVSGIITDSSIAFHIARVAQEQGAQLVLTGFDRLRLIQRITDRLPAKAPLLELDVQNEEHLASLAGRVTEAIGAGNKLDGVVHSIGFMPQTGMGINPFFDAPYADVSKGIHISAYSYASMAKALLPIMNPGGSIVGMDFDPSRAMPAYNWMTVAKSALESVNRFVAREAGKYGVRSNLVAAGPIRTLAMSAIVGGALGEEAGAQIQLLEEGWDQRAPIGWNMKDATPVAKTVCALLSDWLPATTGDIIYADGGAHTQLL

Row | SMILES | IC50 [2] [µM] | InhA pIC50 ^[a][e] (% 500 μM) [2] | Kd [3] [µM] | other results
1 | NC(=O)C1=CN([C@@H]2O[C@H](COP(=O)(O)OP(=O)(O)OC[C@H]3O[C@@H](n4cnc5c(N)ncnc54)[C@H](O)[C@@H]3O)[C@@H](O)[C@H]2O)C=CC1 [NADH] | – | – | – | STD 1H NMR [1]: NADH binding was also observed in the STD‐NMR spectra
2 | OCc1ccc(Cn2cccn2)cc1 [compound 4, 4] | > 1000 | – | – | –
3 | Cc1cc(N)n(Cc2ccccc2)n1 [compound 9, 9] | – | 3.4±0.23 | 501 | –
4 | CCOC(=O)[C@@H]1CCc2nc(C)sc2C1 [compound 22, 22] | 794 | – | – | –
5 | O=C(CCc1cccnc1)NC1CCN(c2ncccn2)CC1 [compound 36, 36] | > 1000 | – | – | –
6 | O=C(NCc1cccnc1)NC1CCN(c2ncccn2)CC1 [compound 37, 37] | – | 4.1±0.06 | – | –
7 | Cc1cncc(CNC(=O)NC2CCCCC2)c1 [compound 38, 38] | 100 | – | 631 | –
8 | Cc1cncc(CNC(=O)NC2CCN(c3ncccn3)CC2)c1 [compound 39, 39] | – | 5.0±0.14 | 20 | –
9 | Cc1cc(=O)c(-c2ccccc2)c(C)[nH]1 [compound 40, 40] | 15.8 | – | 25.1 | –
10 | Cc1cc(=O)c(C2CCN(c3ncccn3)CC2)c(C)[nH]1 [compound 41, 41] | 1 | – | 6.31 | –
11 | O=c1[nH]c(CC2CCCCC2)cc(O)c1C1CCN(c2ncccn2)CC1 [compound 42, 42] | – | 6.5±0.03 | – | –
12 | CC(C)Cc1cc(O)c(C2CCN(c3ncccn3)CC2)c(=O)[nH]1 [compound 43, 43] | 6.31 | – | 200 | –
13 | Cc1cc(C)n(Cc2ccc(C(=O)NCc3ccc(F)cc3Cl)cc2)n1 [compound 44, 44] | – | – | – | InhA pIC50 ^[a][e] (% 500 μM) [2, 4]: 6.9±0.07
14 | Cc1ccn(C(C)c2nnc(Nc3ccn(Cc4c(F)cccc4Cl)n3)s2)n1 (stereo not shown) [compound 45, 45] | – | – | 0.01 | InhA pIC50 ^[a][e] (% 500 μM) [2, 4]: 8.1±0.27
15 | Cc1cc(N)n(Cc2ccc(C(=O)NCc3ccc(F)cc3Cl)cc2)n1 [compound 46, 46] | – | 6.3±0.25 | 0.501 | –
16 | Cc1cc(N)n(Cc2nnc(Nc3ccn(Cc4c(F)cccc4Cl)n3)s2)n1 [compound 47, 47] | – | 7.3±0.20 | 0.0794 | –
